Assay results from PubChem BioAssay (NCI).
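The compound was tested at five concentrations on cells cultured in 96-well plates, with a 48-hour exposure period. At the TGI there is no net growth.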

Experiments:
Experiment in all cases: NCI-60 cell line screen, 48 h
786-0 renal = test system: 786-0 renal
A549 NSCLC = test system: A549 NSCLC
ACHN renal = test system: ACHN renal
CAKI-1 renal = test system: CAKI-1 renal
CCRF-CEM leukemia = test system: CCRF-CEM leukemia
COLO 205 colon = test system: COLO 205 colon
DLD-1 colon = test system: DLD-1 colon
EKVX NSCLC = test system: EKVX NSCLC
HCC-2998 colon = test system: HCC-2998 colon
HCT-116 colon = test system: HCT-116 colon
HCT-15 colon = test system: HCT-15 colon
HL-60(TB) leukemia = test system: HL-60(TB) leukemia
HOP-18 NSCLC = test system: HOP-18 NSCLC
HOP-62 NSCLC = test system: HOP-62 NSCLC
HT29 colon = test system: HT29 colon
IGROV1 ovarian = test system: IGROV1 ovarian
K-562 leukemia = test system: K-562 leukemia
KM12 colon = test system: KM12 colon
KM20L2 colon = test system: KM20L2 colon
LOX IMVI melanoma = test system: LOX IMVI melanoma
LXFL 529 NSCLC = test system: LXFL 529 NSCLC
M14 melanoma = test system: M14 melanoma
M19-MEL melanoma = test system: M19-MEL melanoma
MALME-3M melanoma = test system: MALME-3M melanoma
MOLT-4 leukemia = test system: MOLT-4 leukemia
NCI-H226 lung = test system: NCI-H226 lung
NCI-H23 lung = test system: NCI-H23 lung
NCI-H460 lung = test system: NCI-H460 lung
NCI-H522 lung = test system: NCI-H522 lung
OVCAR-3 ovarian = test system: OVCAR-3 ovarian
OVCAR-4 ovarian = test system: OVCAR-4 ovarian
OVCAR-5 ovarian = test system: OVCAR-5 ovarian
OVCAR-8 ovarian = test system: OVCAR-8 ovarian
RPMI-8226 leukemia = test system: RPMI-8226 leukemia
RXF 393 renal = test system: RXF 393 renal
SF-268 CNS = test system: SF-268 CNS
SF-295 CNS = test system: SF-295 CNS
SF-539 CNS = test system: SF-539 CNS
SK-MEL-2 melanoma = test system: SK-MEL-2 melanoma
SK-MEL-28 melanoma = test system: SK-MEL-28 melanoma
SK-MEL-5 melanoma = test system: SK-MEL-5 melanoma
SN12C renal = test system: SN12C renal
SNB-19 CNS = test system: SNB-19 CNS
SNB-75 CNS = test system: SNB-75 CNS
SNB-78 CNS = test system: SNB-78 CNS
SR leukemia = test system: SR leukemia
SW-620 colon = test system: SW-620 colon
U251 CNS = test system: U251 CNS
UACC-257 melanoma = test system: UACC-257 melanoma
UACC-62 melanoma = test system: UACC-62 melanoma
UO-31 renal = test system: UO-31 renal
XF 498 CNS = test system: XF 498 CNS
A498 renal = test system: A498 renal
DMS 114 small cell lung = test system: DMS 114 small cell lung
DMS 273 small cell lung = test system: DMS 273 small cell lung
HOP-92 NSCLC = test system: HOP-92 NSCLC
SK-OV-3 ovarian = test system: SK-OV-3 ovarian
TK-10 renal = test system: TK-10 renal

COc1ccc(-c2onc(-c3ccc([N+](=O)[O-])cc3)c2C2=NCCCN2)cc1
TGI (786-0 renal): > 100 µM | TGI (A549 NSCLC): > 100 µM | TGI (ACHN renal): > 100 µM | TGI (CAKI-1 renal): > 100 µM | TGI (CCRF-CEM leukemia): > 100 µM | TGI (COLO 205 colon): > 100 µM | TGI (DLD-1 colon): > 100 µM | TGI (EKVX NSCLC): > 100 µM | TGI (HCC-2998 colon): > 100 µM | TGI (HCT-116 colon): > 100 µM | TGI (HCT-15 colon): > 100 µM | TGI (HL-60(TB) leukemia): > 100 µM | TGI (HOP-18 NSCLC): > 100 µM | TGI (HOP-62 NSCLC): > 100 µM | TGI (HT29 colon): > 100 µM | TGI (IGROV1 ovarian): > 100 µM | TGI (K-562 leukemia): > 100 µM | TGI (KM12 colon): > 100 µM | TGI (KM20L2 colon): > 100 µM | TGI (LOX IMVI melanoma): > 100 µM | TGI (LXFL 529 NSCLC): > 100 µM | TGI (M14 melanoma): > 100 µM | TGI (M19-MEL melanoma): > 100 µM | TGI (MALME-3M melanoma): > 100 µM | TGI (MOLT-4 leukemia): > 100 µM | TGI (NCI-H226 lung): > 100 µM | TGI (NCI-H23 lung): > 100 µM | TGI (NCI-H460 lung): > 100 µM | TGI (NCI-H522 lung): > 100 µM | TGI (OVCAR-3 ovarian): 85.5 µM | TGI (OVCAR-4 ovarian): > 100 µM | TGI (OVCAR-5 ovarian): > 100 µM | TGI (OVCAR-8 ovarian): > 100 µM | TGI (RPMI-8226 leukemia): > 100 µM | TGI (RXF 393 renal): > 100 µM | TGI (SF-268 CNS): > 100 µM | TGI (SF-295 CNS): > 100 µM | TGI (SF-539 CNS): > 100 µM | TGI (SK-MEL-2 melanoma): > 100 µM | TGI (SK-MEL-28 melanoma): > 100 µM | TGI (SK-MEL-5 melanoma): > 100 µM | TGI (SN12C renal): > 100 µM | TGI (SNB-19 CNS): > 100 µM | TGI (SNB-75 CNS): > 100 µM | TGI (SNB-78 CNS): > 100 µM | TGI (SR leukemia): > 100 µM | TGI (SW-620 colon): > 100 µM | TGI (U251 CNS): > 100 µM | TGI (UACC-257 melanoma): > 100 µM | TGI (UACC-62 melanoma): > 100 µM | TGI (UO-31 renal): > 100 µM | TGI (XF 498 CNS): > 100 µM

O=C1OC(Cl)C(N=P(c2ccccc2)(c2ccccc2)c2ccccc2)=C1Cl (centres undefined)
TGI (786-0 renal): > 100 µM | TGI (A498 renal): > 100 µM | TGI (A549 NSCLC): > 100 µM | TGI (CAKI-1 renal): > 100 µM | TGI (CCRF-CEM leukemia): > 100 µM | TGI (COLO 205 colon): > 100 µM | TGI (DLD-1 colon): > 100 µM | TGI (DMS 114 small cell lung): > 100 µM | TGI (DMS 273 small cell lung): > 100 µM | TGI (EKVX NSCLC): > 100 µM | TGI (HCC-2998 colon): > 100 µM | TGI (HCT-116 colon): > 100 µM | TGI (HL-60(TB) leukemia): > 100 µM | TGI (HOP-62 NSCLC): > 100 µM | TGI (HOP-92 NSCLC): > 100 µM | TGI (HT29 colon): > 100 µM | TGI (IGROV1 ovarian): > 100 µM | TGI (K-562 leukemia): > 100 µM | TGI (KM12 colon): > 100 µM | TGI (LOX IMVI melanoma): > 100 µM | TGI (LXFL 529 NSCLC): > 100 µM | TGI (M14 melanoma): > 100 µM | TGI (M19-MEL melanoma): > 100 µM | TGI (MALME-3M melanoma): > 100 µM | TGI (MOLT-4 leukemia): > 100 µM | TGI (NCI-H226 lung): > 100 µM | TGI (NCI-H23 lung): > 100 µM | TGI (NCI-H522 lung): > 100 µM | TGI (OVCAR-3 ovarian): > 100 µM | TGI (OVCAR-4 ovarian): > 100 µM | TGI (OVCAR-8 ovarian): > 100 µM | TGI (RPMI-8226 leukemia): > 100 µM | TGI (SF-268 CNS): > 100 µM | TGI (SF-295 CNS): > 100 µM | TGI (SF-539 CNS): > 100 µM | TGI (SK-MEL-2 melanoma): > 100 µM | TGI (SK-MEL-28 melanoma): > 100 µM | TGI (SK-MEL-5 melanoma): > 100 µM | TGI (SK-OV-3 ovarian): > 100 µM | TGI (SN12C renal): > 100 µM | TGI (SNB-19 CNS): > 100 µM | TGI (SNB-75 CNS): 85.4 µM | TGI (SNB-78 CNS): > 100 µM | TGI (SR leukemia): > 100 µM | TGI (SW-620 colon): > 100 µM | TGI (TK-10 renal): > 100 µM | TGI (UACC-257 melanoma): > 100 µM | TGI (UACC-62 melanoma): > 100 µM | TGI (UO-31 renal): > 100 µM | TGI (XF 498 CNS): > 100 µM

CC(C)OP(=O)(OC(C)C)/C(F)=N/Nc1ccc([N+](=O)[O-])cc1
TGI (A498 renal): > 100 µM | TGI (A549 NSCLC): > 100 µM | TGI (ACHN renal): > 100 µM | TGI (CAKI-1 renal): > 100 µM | TGI (CCRF-CEM leukemia): > 100 µM | TGI (COLO 205 colon): > 100 µM | TGI (DLD-1 colon): > 100 µM | TGI (DMS 114 small cell lung): > 100 µM | TGI (DMS 273 small cell lung): > 100 µM | TGI (EKVX NSCLC): > 100 µM | TGI (HCC-2998 colon): > 100 µM | TGI (HCT-116 colon): > 100 µM | TGI (HCT-15 colon): > 100 µM | TGI (HL-60(TB) leukemia): > 100 µM | TGI (HOP-62 NSCLC): > 100 µM | TGI (HOP-92 NSCLC): > 100 µM | TGI (HT29 colon): > 100 µM | TGI (IGROV1 ovarian): > 100 µM | TGI (K-562 leukemia): > 100 µM | TGI (KM12 colon): > 100 µM | TGI (KM20L2 colon): > 100 µM | TGI (LXFL 529 NSCLC): > 100 µM | TGI (M14 melanoma): > 100 µM | TGI (M19-MEL melanoma): > 100 µM | TGI (MALME-3M melanoma): > 100 µM | TGI (MOLT-4 leukemia): > 100 µM | TGI (NCI-H23 lung): > 100 µM | TGI (NCI-H460 lung): > 100 µM | TGI (NCI-H522 lung): > 100 µM | TGI (OVCAR-3 ovarian): > 100 µM | TGI (OVCAR-4 ovarian): > 100 µM | TGI (OVCAR-5 ovarian): > 100 µM | TGI (OVCAR-8 ovarian): > 100 µM | TGI (RPMI-8226 leukemia): > 100 µM | TGI (SF-268 CNS): > 100 µM | TGI (SF-295 CNS): > 100 µM | TGI (SF-539 CNS): > 100 µM | TGI (SK-MEL-2 melanoma): > 100 µM | TGI (SK-MEL-28 melanoma): > 100 µM | TGI (SK-MEL-5 melanoma): > 100 µM | TGI (SK-OV-3 ovarian): > 100 µM | TGI (SN12C renal): > 100 µM | TGI (SNB-19 CNS): > 100 µM | TGI (SNB-75 CNS): > 100 µM | TGI (SR leukemia): > 100 µM | TGI (SW-620 colon): > 100 µM | TGI (TK-10 renal): > 100 µM | TGI (U251 CNS): > 100 µM | TGI (UACC-257 melanoma): > 100 µM | TGI (UACC-62 melanoma): > 100 µM | TGI (UO-31 renal): > 100 µM | TGI (XF 498 CNS): > 100 µM
